Results on one compound are retold here after ChEMBL document CHEMBL3627651, “Fine tuning of agonistic/antagonistic activity for vitamin D receptor by 22-alkyl chain length of ligands: 22S-Hexyl compound unexpectedly restored agonistic activity” (Bioorg Med Chem, 2015).

SMILES strings stand for the structures. The source made the active and inactive calls. The calls are words filed in the database; no cut-off is given here.

One test concerns the target T1, Vitamin D3 receptor (Homo sapiens, UniProt P11473).
T1 sequence (P11473 whole entry): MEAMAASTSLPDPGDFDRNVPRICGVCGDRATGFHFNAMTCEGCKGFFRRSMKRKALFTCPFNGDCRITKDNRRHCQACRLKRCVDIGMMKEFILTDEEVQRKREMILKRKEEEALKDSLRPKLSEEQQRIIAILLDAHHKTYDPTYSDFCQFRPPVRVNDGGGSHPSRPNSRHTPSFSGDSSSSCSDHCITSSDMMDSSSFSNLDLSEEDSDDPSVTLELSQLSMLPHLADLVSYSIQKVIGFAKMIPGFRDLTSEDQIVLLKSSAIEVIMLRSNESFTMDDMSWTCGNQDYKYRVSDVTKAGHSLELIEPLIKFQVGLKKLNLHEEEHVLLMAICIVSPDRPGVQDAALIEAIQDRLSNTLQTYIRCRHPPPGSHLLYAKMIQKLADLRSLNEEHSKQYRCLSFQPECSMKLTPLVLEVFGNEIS
Nature of the test: Displacement of [3H]-1alpha,25-dihydroxyvitamin D3 from recombinant human VDR LBD expressed in Escherichia coli BL21 (DE3) pLysS after 16 hrs. A general note: Displacement assays read how much labelled ligand stays bound in the presence of the test substance.

Test [1] has as its target T2, Vitamin D3 receptor (Homo sapiens) (UniProt P11473).
T2 sequence (whole entry): T1 sequence (P11473 whole entry)
Kind of test: Agonist activity at human VDR transfected in African green monkey COS7 cells assessed as induction of transcriptional activity at 10^-10 to 10^-5 M after 16 hrs by dual luciferase reporter gene assay. The class given is cell-based. Particulars: COS-7. A general note: A reporter such as luciferase makes a cellular process visible.

With `C=C1[C@H](O)CC(=C/C=C2\CCC[C@]3(C)[C@@H]([C@H](C)[C@H](CCO)CCCCCC)CC[C@@H]23)C[C@H]1O`, the IC50 at Vitamin D3 receptor was found to be 0.21 nM. Moreover, the outcome in test [1] was Active.

In general, IC50 refers to the midpoint of a concentration-inhibition curve.
